Where a SMILES comes first, the peptide text is derived from it. Bridges are numbered along the chain shown (N, C = ends). [ ]: non-standard residue; d: D form. Trp(1-CH2COOH) = N[C@@H](Cc1cn(CC(=O)O)c2ccccc12)C(=O)O; NMeW = CN[C@@H](Cc1c[nH]c2ccccc12)C(=O)O; Hyp = O=C(O)[C@@H]1C[C@@H](O)CN1; NMeNle = CCCC[C@H](NC)C(=O)O; NMeA = CN[C@@H](C)C(=O)O; Dab = NCC[C@H](N)C(=O)O; Dap = NC[C@H](N)C(=O)O

The target of this assay is T1, Human PD-L1/PD-1 (Homo sapiens, UniProt Q9NZQ7).
T1 construct: TVMV protease cleavage site (C); made in house; host or cells: HEK293T cells
Nature of the assay: HTRF Human PD-L1/PD-1 binding assay (PD-1-Ig/PD-L1-His). As to conditions: PD-L1-His 10 nM, PD-1-Ig 20 nM; class symbol; read-out: HTRF Human PD-L1/PD-1 Binding Assay IC50 Range. Summed up:
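Inhibitors were preincubated 15 min with human PD-L1(18-239)-His (10 nM final), then PD-1(25-167)-Ig (20 nM final) was added for 15 min in dPBS/0.1% BSA/0.05% Tween-20. Eu-cryptate anti-Ig (1 nM) and APC anti-His (20 nM) were added; 665/620 nm ratio read after 30 min.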
In general terms: In TR-FRET formats the signal depends on donor and acceptor labels being close together.

T1 sequence (Q9NZQ7 with tags, fused parts or gaps): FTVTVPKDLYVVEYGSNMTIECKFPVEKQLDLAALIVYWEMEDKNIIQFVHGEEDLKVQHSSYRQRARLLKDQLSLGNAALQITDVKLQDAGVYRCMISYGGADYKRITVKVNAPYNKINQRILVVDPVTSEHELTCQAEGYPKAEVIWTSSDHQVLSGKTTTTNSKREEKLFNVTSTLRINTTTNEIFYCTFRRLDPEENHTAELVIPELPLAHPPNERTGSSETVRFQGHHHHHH

With `CCCC[C@H]1C(=O)N[C@@H](CN)C(=O)N[C@H](C(=O)NCC(N)=O)CSCC(=O)N[C@@H](Cc2ccc(O)cc2)C(=O)N(C)[C@@H](C)C(=O)N[C@@H](CC(=O)O)C(=O)N2CCC[C@H]2C(=O)N[C@@H](Cc2c[nH]cn2)C(=O)N[C@@H](CCC(=O)O)C(=O)N2C[C@H](O)C[C@H]2C(=O)N[C@@H](Cc2c[nH]c3ccccc23)C(=O)N[C@@H](CCN)C(=O)N[C@@H](Cc2c[nH]c3ccccc23)C(=O)N(C)[C@@H](Cc2c[nH]c3ccccc23)C(=O)N1C` [Example 5229] ({CH2CO}-Y[NMeA]DPHE[Hyp]W[Dab]W[NMeW][NMeNle][Dap]CG-NH2; thioether N-14), the IC50 fell in the range of 1 to 9.9 nM.
The figure for `CCCC[C@H]1C(=O)N(C)[C@@H](CCCC)C(=O)N[C@@H](CCC(=O)O)C(=O)N[C@H](C(=O)NCC(N)=O)CSCC(=O)N[C@@H](Cc2ccc(O)cc2)C(=O)N(C)[C@@H](C)C(=O)N[C@@H](CC(=O)O)C(=O)N2CCC[C@H]2C(=O)N[C@@H](Cc2cnc[nH]2)C(=O)N[C@@H](CCC(=O)O)C(=O)N2C[C@H](O)C[C@H]2C(=O)N[C@@H](Cc2c[nH]c3ccccc23)C(=O)N[C@@H](CO)C(=O)N[C@@H](Cc2c[nH]c3ccccc23)C(=O)N1C` [Example 5230] ({CH2CO}-Y[NMeA]DPHE[Hyp]WSW[NMeNle][NMeNle]ECG-NH2; thioether N-14) is 1 to 9.9 nM.
Under `CCCC[C@H]1C(=O)N(C)[C@@H](CCCC)C(=O)N[C@@H](CN)C(=O)N[C@H](C(=O)NCC(N)=O)CSCC(=O)N[C@@H](Cc2ccc(O)cc2)C(=O)N(C)[C@@H](C)C(=O)N[C@@H](CC(N)=O)C(=O)N2CCC[C@H]2C(=O)N[C@@H](CN)C(=O)N[C@@H](CCC(=O)O)C(=O)N2C[C@H](O)C[C@H]2C(=O)N[C@@H](Cc2c[nH]c3ccccc23)C(=O)N[C@@H](CO)C(=O)N[C@@H](Cc2cn(CC(=O)O)c3ccccc23)C(=O)N1C` [Example 5231] ({CH2CO}-Y[NMeA]NP[Dap]E[Hyp]WS[Trp(1-CH2COOH)][NMeNle][NMeNle][Dap]CG-NH2; thioether N-14) stands 1 to 9.9 nM; under `CCCC[C@H]1C(=O)N(C)[C@@H](CCCC)C(=O)N[C@@H](CCC(=O)O)C(=O)N[C@H](C(=O)NCC(N)=O)CSCC(=O)N[C@@H](Cc2ccc(O)cc2)C(=O)N(C)[C@@H](C)C(=O)N[C@@H](CC(N)=O)C(=O)N2CCC[C@H]2C(=O)N[C@@H](CN)C(=O)N[C@@H](CC(C)C)C(=O)N2C[C@H](O)C[C@H]2C(=O)N[C@@H](Cc2c[nH]c3ccccc23)C(=O)N[C@@H](CCC(=O)O)C(=O)N[C@@H](Cc2c[nH]c3ccccc23)C(=O)N1C` [Example 5232] ({CH2CO}-Y[NMeA]NP[Dap]L[Hyp]WEW[NMeNle][NMeNle]ECG-NH2; thioether N-14), 1 to 9.9 nM.
`CCCC[C@H]1C(=O)N(C)[C@@H](CCCC)C(=O)N[C@@H](CCC(=O)O)C(=O)N[C@H](C(=O)NCC(N)=O)CSCC(=O)N[C@@H](Cc2ccc(O)cc2)C(=O)N(C)[C@@H](C)C(=O)N[C@@H](CC(=O)O)C(=O)N2CCC[C@H]2C(=O)N[C@@H](CO)C(=O)N[C@@H](CCC(=O)O)C(=O)N2C[C@H](O)C[C@H]2C(=O)N[C@@H](Cc2c[nH]c3ccccc23)C(=O)N[C@@H](CO)C(=O)N[C@@H](Cc2c[nH]c3ccccc23)C(=O)N1C` [Example 5233] ({CH2CO}-Y[NMeA]DPSE[Hyp]WSW[NMeNle][NMeNle]ECG-NH2; thioether N-14): the IC50 is 1 to 9.9 nM.
The figure for `CCCC[C@H]1C(=O)N(C)[C@@H](CCCC)C(=O)N[C@@H](CC(C)C)C(=O)N[C@H](C(=O)NCC(N)=O)CSCC(=O)N[C@@H](Cc2ccc(O)cc2)C(=O)N(C)[C@@H](C)C(=O)N[C@@H](CC(N)=O)C(=O)N(C)[C@@H](C)C(=O)N[C@@H](Cc2cnc[nH]2)C(=O)N[C@@H](CCC(N)=O)C(=O)N2C[C@H](O)C[C@H]2C(=O)N[C@@H](Cc2c[nH]c3ccccc23)C(=O)N[C@@H](CO)C(=O)N[C@@H](Cc2c[nH]c3ccccc23)C(=O)N1C` [Example 5234] ({CH2CO}-Y[NMeA]N[NMeA]HQ[Hyp]WSW[NMeNle][NMeNle]LCG-NH2; thioether N-14) is 1 to 9.9 nM; for `CCCC[C@H]1C(=O)N(C)[C@@H](CCCC)C(=O)N[C@@H](CCC(=O)O)C(=O)N[C@H](C(=O)NCC(N)=O)CSCC(=O)N[C@@H](Cc2ccc(O)cc2)C(=O)N(C)[C@@H](C)C(=O)N[C@@H](CC(=O)O)C(=O)N2CCC[C@H]2C(=O)N[C@@H](Cc2cnc[nH]2)C(=O)N[C@@H](CCC(=O)O)C(=O)N2C[C@H](O)C[C@H]2C(=O)N[C@@H](Cc2c[nH]c3ccccc23)C(=O)N[C@@H](CCC(=O)O)C(=O)N[C@@H](Cc2c[nH]c3ccccc23)C(=O)N1C` [Example 5236] ({CH2CO}-Y[NMeA]DPHE[Hyp]WEW[NMeNle][NMeNle]ECG-NH2; thioether N-14) it is 1 to 9.9 nM; for `CCCC[C@H]1C(=O)N(C)[C@@H](CCCC)C(=O)N[C@@H](CCC(=O)O)C(=O)N[C@H](C(=O)NCC(N)=O)CSCC(=O)N[C@@H](Cc2ccc(O)cc2)C(=O)N(C)[C@@H](C)C(=O)N[C@@H](CC(N)=O)C(=O)N2CCC[C@H]2C(=O)N[C@@H](CN)C(=O)N[C@@H](CCC(N)=O)C(=O)N2C[C@H](O)C[C@H]2C(=O)N[C@@H](Cc2c[nH]c3ccccc23)C(=O)N[C@@H](CCN)C(=O)N[C@@H](Cc2c[nH]c3ccccc23)C(=O)N1C` [Example 5237] ({CH2CO}-Y[NMeA]NP[Dap]Q[Hyp]W[Dab]W[NMeNle][NMeNle]ECG-NH2; thioether N-14) it is 1 to 9.9 nM.
Under `CCCC[C@H]1C(=O)N(C)[C@@H](CCCC)C(=O)N[C@@H](CN)C(=O)N[C@H](C(=O)NCC(N)=O)CSCC(=O)N[C@@H](Cc2ccc(O)cc2)C(=O)N(C)[C@@H](C)C(=O)N[C@@H](CC(=O)O)C(=O)N2CCC[C@H]2C(=O)N[C@@H](Cc2cnc[nH]2)C(=O)N[C@@H](CCC(N)=O)C(=O)N2C[C@H](O)C[C@H]2C(=O)N[C@@H](Cc2c[nH]c3ccccc23)C(=O)N[C@@H](CCN)C(=O)N[C@@H](Cc2cn(CC(=O)O)c3ccccc23)C(=O)N1C` [Example 5238] ({CH2CO}-Y[NMeA]DPHQ[Hyp]W[Dab][Trp(1-CH2COOH)][NMeNle][NMeNle][Dap]CG-NH2; thioether N-14) stands 1 to 9.9 nM; under `CCCC[C@H]1C(=O)N(C)[C@@H](CCCC)C(=O)N[C@@H](CCC(=O)O)C(=O)N[C@H](C(=O)NCC(N)=O)CSCC(=O)N[C@@H](Cc2ccc(O)cc2)C(=O)N(C)[C@@H](C)C(=O)N[C@@H](CC(N)=O)C(=O)N2CCC[C@H]2C(=O)N[C@@H](CO)C(=O)N[C@@H](CCC(N)=O)C(=O)N2C[C@H](O)C[C@H]2C(=O)N[C@@H](Cc2c[nH]c3ccccc23)C(=O)N[C@@H](CCC(=O)O)C(=O)N[C@@H](Cc2c[nH]c3ccccc23)C(=O)N1C` [Example 5240] ({CH2CO}-Y[NMeA]NPSQ[Hyp]WEW[NMeNle][NMeNle]ECG-NH2; thioether N-14), 1 to 9.9 nM; under `CCCC[C@H]1C(=O)N(C)[C@@H](CCCC)C(=O)N[C@@H](CC(C)C)C(=O)N[C@H](C(=O)NCC(N)=O)CSCC(=O)N[C@@H](Cc2ccc(O)cc2)C(=O)N(C)[C@@H](C)C(=O)N[C@@H](CC(N)=O)C(=O)N2CCC[C@H]2C(=O)N[C@@H](Cc2cnc[nH]2)C(=O)N[C@@H](CCC(N)=O)C(=O)N2C[C@H](O)C[C@H]2C(=O)N[C@@H](Cc2c[nH]c3ccccc23)C(=O)N[C@@H](CCN)C(=O)N[C@@H](Cc2cn(CC(=O)O)c3ccccc23)C(=O)N1C` [Example 5241] ({CH2CO}-Y[NMeA]NPHQ[Hyp]W[Dab][Trp(1-CH2COOH)][NMeNle][NMeNle]LCG-NH2; thioether N-14), 10 to 99.9 nM.
Under `CCCC[C@H]1C(=O)N(C)[C@@H](CCCC)C(=O)N[C@@H](CCC(=O)O)C(=O)N[C@H](C(=O)NCC(N)=O)CSCC(=O)N[C@@H](Cc2ccc(O)cc2)C(=O)N(C)[C@@H](C)C(=O)N[C@@H](CC(N)=O)C(=O)N2CCC[C@H]2C(=O)N[C@@H](CN)C(=O)N[C@@H](CCC(=O)O)C(=O)N2C[C@H](O)C[C@H]2C(=O)N[C@@H](Cc2c[nH]c3ccccc23)C(=O)N[C@@H](CO)C(=O)N[C@@H](Cc2c[nH]c3ccccc23)C(=O)N1C` [Example 5242] ({CH2CO}-Y[NMeA]NP[Dap]E[Hyp]WSW[NMeNle][NMeNle]ECG-NH2; thioether N-14) stands 1 to 9.9 nM.
Turning to `CCCC[C@H]1C(=O)N(C)[C@@H](CCCC)C(=O)N[C@@H](CCC(=O)O)C(=O)N[C@H](C(=O)NCC(N)=O)CSCC(=O)N[C@@H](Cc2ccc(O)cc2)C(=O)N(C)[C@@H](C)C(=O)N[C@@H](CC(N)=O)C(=O)N2CCC[C@H]2C(=O)N[C@@H](CN)C(=O)N[C@@H](CCC(=O)O)C(=O)N2C[C@H](O)C[C@H]2C(=O)N[C@@H](Cc2c[nH]c3ccccc23)C(=O)N[C@@H](CCC(=O)O)C(=O)N[C@@H](Cc2c[nH]c3ccccc23)C(=O)N1C` [Example 5243] ({CH2CO}-Y[NMeA]NP[Dap]E[Hyp]WEW[NMeNle][NMeNle]ECG-NH2; thioether N-14), the IC50 is 100 to 990 nM.
As to `CCCC[C@H]1C(=O)N(C)[C@@H](CCCC)C(=O)N[C@@H](CCC(=O)O)C(=O)N[C@H](C(=O)NCC(N)=O)CSCC(=O)N[C@@H](Cc2ccc(O)cc2)C(=O)N(C)[C@@H](C)C(=O)N[C@@H](CC(=O)O)C(=O)N2CCC[C@H]2C(=O)N[C@@H](CN)C(=O)N[C@@H](CCC(N)=O)C(=O)N2C[C@H](O)C[C@H]2C(=O)N[C@@H](Cc2c[nH]c3ccccc23)C(=O)N[C@@H](CCC(=O)O)C(=O)N[C@@H](Cc2c[nH]c3ccccc23)C(=O)N1C` [Example 5245] ({CH2CO}-Y[NMeA]DP[Dap]Q[Hyp]WEW[NMeNle][NMeNle]ECG-NH2; thioether N-14), the IC50 was 1 to 9.9 nM.
Under `CCCC[C@H]1C(=O)N(C)[C@@H](CCCC)C(=O)N[C@@H](CCC(=O)O)C(=O)N[C@H](C(=O)NCC(N)=O)CSCC(=O)N[C@@H](Cc2ccc(O)cc2)C(=O)N(C)[C@@H](C)C(=O)N[C@@H](CC(=O)O)C(=O)N2CCC[C@H]2C(=O)N[C@@H](CN)C(=O)N[C@@H](CCC(N)=O)C(=O)N2C[C@H](O)C[C@H]2C(=O)N[C@@H](Cc2c[nH]c3ccccc23)C(=O)N[C@@H](CO)C(=O)N[C@@H](Cc2c[nH]c3ccccc23)C(=O)N1C` [Example 5246] ({CH2CO}-Y[NMeA]DP[Dap]Q[Hyp]WSW[NMeNle][NMeNle]ECG-NH2; thioether N-14) stands 1 to 9.9 nM.

Values taken from patent US10538555B2, “Macrocyclic inhibitors of the PD-1/PD-L1 and CD80(B7-1)/PD-L1 protein/protein interactions” (BRISTOL-MYERS SQUIBB COMPANY, priority 2014, dated 2020).
